Source: US11279703B2, “Fused pyrimidine compounds as BRD4 and JAK2 dual inhibitors and methods for use thereof” (APTOSE BIOSCIENCES INC., priority 2016, dated 2022)
Read-outs that look alike come from different tables or passages of the source.

How the values were obtained:
[1] = molecular target: BRD4-BD1 (Homo sapiens (Human), UniProt O60885); experiment: AlphaLisa bromodomain binding assay, BRD4-BD1
[2] = molecular target: BRD2-BD1 (Homo sapiens (Human), UniProt P25440); experiment: AlphaLisa bromodomain binding assay, BRD2-BD1; conditions: Table 6; read-out: BRD2(1) IC50
Text: (§1) An AlphaLisa assay was used to observe bromodomain binding and measure IC50s for the compounds disclosed herein. An AlphaLisa assay is a bead-based assay used to detect interactions between bromodomains and polyacetylated histone peptides. Donor and acceptor beads bound to target and ligand are brought into proximity by this protein-protein interaction.
(§2) Equipment Required • 1. […] Plate centrifuge • 3. Plate shaker • 4. […] Single channel and multi-channel pipettes • 6. Microplate reader (Pherastar)
(§3) Stock and Final Assay Concentrations (FAC) • 1. All reference and test compounds are made at a concentration of 10 mM in DMSO. Compounds are serially diluted in DMSO and a FAC starting from 10 μM to 10 point 3 fold serial dilutions is arrived. FAC of DMSO is 1%. • 2. Enzyme stock and FAC
(§4) Biotinylated substrate (Acetylated histone H4, biotinylated substrate—cat no. AS64989-025, Anaspec) stock and FAC
(§5) • 4. Acceptor and donor beads stock and FAC
(§6) Buffers • For the enzyme and substrate dilution following buffer is used (for 50 ml) • HEPES: 50 mM 2.5 ml • NaCl: 25 mM 1.25 ml • DTT: 10 mM 0.05 ml • BSA: 0.1% 0.05 g • MilliQ water: 45.7 ml • For dilution of acceptor and donor beads AlphaLISA 5× epigenetics Buffer Perkin Elmer (Cat: AL008C) is used at 1× concentration.
(§7) Procedure • 1. […] Tap the plate gently • 3. […] Cover with plate sealer • 5. […] Incubate the plate at room temperature for 10 minutes • 7. Add 10 μl of the substrate • 8. Cover with plate sealer • 9. […] Cover with plate sealer • 14. […] Cover with plate sealer • 18.
(§8) The percent inhibition is calculated in the excel analysis template and the IC50 values are subsequently determined using a sigmoidal dose-response curve (variable slope) using GraphPad Prism® 5 software.

[3] = molecular target: BRD3-BD1 (Homo sapiens (Human), UniProt Q15059); experiment: AlphaLisa bromodomain binding assay, BRD3-BD1; conditions: Table 6; read-out: BRD3(1) IC50
Text: as §1, §2, §3, §4, §5, §6, §7, §8

[4] = molecular target: BRD4-BD2 (Homo sapiens (Human), UniProt O60885); experiment: AlphaLisa bromodomain binding assay, BRD4-BD2; conditions: Table 6; read-out: BRD4(2) IC50
Text: as §1, §2, §3, §4, §5, §6, §7, §8

[5] = molecular target: BRDT-BD1 (Homo sapiens (Human), UniProt Q58F21); experiment: AlphaLisa bromodomain binding assay, BRDT-BD1; conditions: Table 6; read-out: BRDT(1) IC50
Text: as §1, §2, §3, §4, §5, §6, §7, §8

[6] = molecular target: JAK2 (Homo sapiens (Human), UniProt O60674); experiment: HTRF kinase assay, JAK2; assay type: biochemical
[7] = Table 6, read-out: BRD4(1) IC50

Sequence of BRD3-BD1 (Q15059 34-140): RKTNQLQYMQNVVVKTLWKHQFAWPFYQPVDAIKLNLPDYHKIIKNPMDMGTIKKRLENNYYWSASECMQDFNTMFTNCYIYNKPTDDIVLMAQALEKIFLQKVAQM
Sequence of BRD2-BD1 (P25440 74-180): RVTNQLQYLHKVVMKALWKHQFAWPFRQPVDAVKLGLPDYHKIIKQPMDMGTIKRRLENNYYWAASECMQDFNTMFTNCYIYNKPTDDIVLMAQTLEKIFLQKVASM
Sequence of JAK2 (O60674 whole entry): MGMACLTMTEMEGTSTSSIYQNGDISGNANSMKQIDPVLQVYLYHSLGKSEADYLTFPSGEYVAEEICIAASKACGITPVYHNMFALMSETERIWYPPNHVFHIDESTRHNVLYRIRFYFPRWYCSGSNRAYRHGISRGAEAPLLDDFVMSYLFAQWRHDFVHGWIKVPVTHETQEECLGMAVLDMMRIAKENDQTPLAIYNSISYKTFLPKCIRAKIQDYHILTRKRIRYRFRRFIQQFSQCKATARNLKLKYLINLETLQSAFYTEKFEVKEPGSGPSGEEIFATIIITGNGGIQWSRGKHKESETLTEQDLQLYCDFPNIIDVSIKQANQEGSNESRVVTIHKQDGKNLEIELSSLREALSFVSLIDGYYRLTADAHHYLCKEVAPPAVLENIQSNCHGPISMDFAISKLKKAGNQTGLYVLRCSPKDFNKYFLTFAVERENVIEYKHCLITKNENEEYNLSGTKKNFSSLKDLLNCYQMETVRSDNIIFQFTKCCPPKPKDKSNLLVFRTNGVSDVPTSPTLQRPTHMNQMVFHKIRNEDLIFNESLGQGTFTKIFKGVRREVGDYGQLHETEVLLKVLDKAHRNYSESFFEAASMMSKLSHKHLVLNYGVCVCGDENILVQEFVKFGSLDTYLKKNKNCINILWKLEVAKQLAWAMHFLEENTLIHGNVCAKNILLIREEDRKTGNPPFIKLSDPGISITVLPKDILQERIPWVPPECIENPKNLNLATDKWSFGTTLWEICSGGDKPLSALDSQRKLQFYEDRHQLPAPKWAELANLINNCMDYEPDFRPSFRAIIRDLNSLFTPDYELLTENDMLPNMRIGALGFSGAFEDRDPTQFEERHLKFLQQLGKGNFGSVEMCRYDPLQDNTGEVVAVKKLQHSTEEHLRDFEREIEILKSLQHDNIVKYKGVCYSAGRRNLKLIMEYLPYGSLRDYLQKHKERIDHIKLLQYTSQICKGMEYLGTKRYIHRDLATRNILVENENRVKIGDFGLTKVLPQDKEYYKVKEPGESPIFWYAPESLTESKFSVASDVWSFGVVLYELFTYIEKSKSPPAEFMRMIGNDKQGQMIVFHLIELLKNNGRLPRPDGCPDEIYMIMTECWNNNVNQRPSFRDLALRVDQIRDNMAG

COc1cc(Nc2nc(Nc3ccc(N4CCN(C)CC4)cc3)nc3ccccc23)ccc1Cl
IC50 [1, 7]: 6300 nM
IC50 [2]: 790 nM
IC50 [3]: 8400 nM
IC50 [4]: 5300 nM

Cc1ccc(Nc2nc(Nc3ccc(N4CCN(C)CC4)cc3)nc3ccccc23)cc1NS(=O)(=O)C(C)(C)C
IC50 [5]: 1800 nM
IC50 [1, 7]: 470 nM
IC50 [2]: 636 nM
IC50 [3]: 3200 nM
IC50 [4]: 1130 nM

Cc1cnc(Nc2ccc(N3CCN(C)CC3)cc2)nc1Nc1cccc(NS(=O)(=O)C(C)(C)C)c1 [drawing 205]
IC50 [1, 7]: 210 nM
IC50 [2]: 373 nM
IC50 [3]: 213 nM
IC50 ([6]; Table 6): 10 nM
IC50 [4]: 13 nM

CN1CCC(Nc2nc(Nc3ccc4c(c3)N(S(=O)(=O)C(C)(C)C)CC4)c3ccsc3n2)CC1 [drawing 204]
IC50 [1, 7]: 160 nM
IC50 [2]: 776 nM
IC50 [3]: 331 nM
IC50 [4]: 293 nM

CN(C)C1CCN(c2ccc(Nc3ncc4ccn(-c5ccc(F)c(NS(=O)(=O)C6CC6)c5)c4n3)cc2)CC1
IC50 [1, 7]: 1010 nM
IC50 ([6]; Table 6): 10 nM

CC(C)(C)S(=O)(=O)Nc1cccc(-c2csc3cnc(Nc4ccc5c(c4)CC4CNCCN54)nc23)c1 (centres unmarked)
IC50 [1, 7]: 318 nM
IC50 ([6]; Table 6): 5 nM

CN1CCN(c2ccc(Nc3ncc4ccn(-c5ccc(CNS(=O)(=O)C(C)(C)C)cc5)c4n3)cc2)CC1 [drawing 378]
IC50 [1, 7]: 10000 nM
IC50 ([6]; Table 6): 0.18 nM

CC(C)(C)S(=O)(=O)Nc1cccc(Nc2nc(NC3CCNCC3)nc3sccc23)c1 [drawing 203]
IC50 [1, 7]: 94 nM
IC50 [2]: 458 nM
IC50 [3]: 248 nM
IC50 [4]: 309 nM

CN1CCC(Nc2nc(Nc3ccc4c(c3)N(S(=O)(=O)C(C)(C)C)CC4)c3ccsc3n2)CC1 [drawing 407]
IC50 [1, 7]: 315 nM
IC50 ([6]; Table 6): 10000 nM

CC1CNCCC1Nc1nc(Nc2cccc(NS(=O)(=O)C(C)(C)C)c2)c2ccsc2n1 (centres unmarked)
IC50 [1, 7]: 1980 nM
IC50 ([6]; Table 6): 10000 nM

CC(C)(C)S(=O)(=O)Nc1cccc(-c2csc3cnc(Nc4cc(F)c5c(c4)CC4CNCCN54)nc23)c1 (centres unmarked)
IC50 [1, 7]: 766 nM
IC50 ([6]; Table 6): 5 nM

Cc1cnc(Nc2ccc(N3CCN(C)CC3)cc2)nc1-n1ccc2c1CCNC2=O
IC50 [1, 7]: 5720 nM
IC50 ([6]; Table 6): 5920 nM

CN1CCN(c2ccc(Nc3ncc4ccn(-c5cccc(NS(=O)(=O)C6(C)CC6)c5)c4n3)cc2)CC1
IC50 [1, 7]: 930 nM
IC50 ([6]; Table 6): 12 nM

CN(C)C1CCN(c2ccc(Nc3ncc4ccn(-c5cccc(NS(=O)(=O)C(C)(C)C)c5)c4n3)cc2F)CC1 [drawing 76]
IC50 ([1]; Table 5, read-out: BRD4 IC50): 131 nM
IC50 ([6]; Table 5): 3 nM

Cc1cnc(Nc2ccc(N3CCN(C)CC3)cc2)nc1Nc1cccc(NS(=O)(=O)C(C)(C)C)c1 [drawing 321]
IC50 [1, 7]: 166 nM
IC50 ([6]; Table 6): 13 nM

CN1CCC(NC(=O)c2ccc(Nc3ncc4ccn(-c5cccc(NS(=O)(=O)C6CC6)c5)c4n3)cc2)CC1
IC50 [1, 7]: 1900 nM
IC50 ([6]; Table 6): 44 nM

CC(C)(C)S(=O)(=O)Nc1cccc(-n2ccc3cnc(Nc4ccc(N5CCN(S(C)(=O)=O)CC5)cc4)nc32)c1
IC50 [1, 7]: 4600 nM
IC50 ([6]; Table 6): 40 nM

CN(C)C(=O)C1CCN(c2ccc(Nc3ncc4ccn(-c5ccc(F)c(NS(=O)(=O)C(C)(C)C)c5)c4n3)cc2F)CC1
IC50 [1, 7]: 491 nM
IC50 ([6]; Table 6): 129 nM

CN(C)C1CCN(c2ccc(Nc3ncc4ccn(-c5cccc(NS(=O)(=O)C(C)(C)C)c5)c4n3)cc2)CC1 [drawing 75]
IC50 ([1]; Table 5, read-out: BRD4 IC50): 173 nM
IC50 ([6]; Table 5): 7.3 nM

CN(C)C1CCN(c2ccc(Nc3ncc4ccn(-c5cccc(NS(=O)(=O)C(C)(C)C)c5)c4n3)cc2)CC1 [drawing 409]
IC50 [1, 7]: 229 nM
IC50 ([6]; Table 6): 6.5 nM

CN1CCN(c2ccc(Nc3ncc4ccn(-c5cccc(N(C)S(=O)(=O)C(C)(C)C)c5)c4n3)cc2)CC1
IC50 [1, 7]: 1100 nM
IC50 ([6]; Table 6): 9 nM

CN1CCN(c2ccc(Nc3cc(Nc4cccc(NS(=O)(=O)C(C)(C)C)c4)c4sccc4n3)cc2)CC1
IC50 [1, 7]: 2860 nM
IC50 ([6]; Table 6): 4650 nM

CC(C)(C)S(=O)(=O)Nc1cccc(-n2ccc3cnc(Nc4ccc(N5CCNCC5)c(F)c4)nc32)c1 [drawing 431]
IC50 [1, 7]: 248 nM
IC50 ([6]; Table 6): 9.6 nM

CN1CCN(C(=O)Cc2ccc(Nc3ncc4ccn(-c5cccc(NS(=O)(=O)C(C)(C)C)c5)c4n3)cc2)CC1
IC50 [1, 7]: 916 nM
IC50 ([6]; Table 6): 176 nM

CN(C)C1CCN(c2ccc(Nc3ncc4ccn(-c5cccc(NS(=O)(=O)C6(C)CC6)c5)c4n3)cc2)CC1
IC50 [1, 7]: 636 nM
IC50 ([6]; Table 6): 6 nM

CNCCNc1ccc(Nc2ncc3ccn(-c4cccc(NS(=O)(=O)C(C)(C)C)c4)c3n2)cc1
IC50 [1, 7]: 407 nM
IC50 ([6]; Table 6): 24 nM

CN(C)C1CCN(c2ccc(Nc3ncc4ccn(-c5cccc(NS(=O)(=O)C(C)(C)C)c5)c4n3)cc2)CC1 [drawing 368]
IC50 [1, 7]: 190 nM
IC50 ([6]; Table 6): 5 nM

CN1CCN(c2ccc(Nc3nc(Nc4cccc(NS(=O)(=O)C(C)(C)C)c4)c4cc[nH]c4n3)cc2)CC1
IC50 [1, 7]: 1680 nM
IC50 ([6]; Table 6): 32 nM

CC(=O)N1CCC(c2ccc(Nc3ncc4ccn(-c5cccc(NS(=O)(=O)C(C)(C)C)c5)c4n3)cc2)CC1
IC50 [1, 7]: 10000 nM
IC50 ([6]; Table 6): 456 nM

CC(C)(C)S(=O)(=O)Nc1cccc(-n2ccc3cnc(Nc4ccc(N5CCNCC5)cc4)nc32)c1 [drawing 306]
IC50 [1, 7]: 394 nM
IC50 ([6]; Table 6): 10 nM

CC(C)(C)S(=O)(=O)Nc1cc(-n2ccc3cnc(Nc4ccc(N5CCNCC5)c(F)c4)nc32)ccc1F [drawing 430]
IC50 [1, 7]: 125 nM
IC50 ([6]; Table 6): 76 nM

CN1CCN2c3ccc(Nc4ncc5scc(-c6cccc(NS(=O)(=O)C(C)(C)C)c6)c5n4)cc3CC2C1 (centres unmarked)
IC50 [1, 7]: 607 nM
IC50 ([6]; Table 6): 2 nM

CNCCNC(=O)Cc1ccc(Nc2ncc3ccn(-c4ccc(F)c(NS(=O)(=O)C(C)(C)C)c4)c3n2)cc1
IC50 [1, 7]: 193 nM
IC50 ([6]; Table 6): 359 nM

Cc1cnc(Nc2ccc(N3CCN(C)CC3)cc2)nc1Nc1cccc(NS(=O)(=O)C(C)(C)C)c1 [drawing 114]
IC50 [1, 7]: 211 nM
IC50 ([6]; Table 6): 12 nM

CN(C)C1CCN2c3ccc(Nc4ncc5ccn(-c6cccc(NS(=O)(=O)C(C)(C)C)c6)c5n4)cc3CC2C1 (centres unmarked) [drawing 445]
IC50 [1, 7]: 105 nM
IC50 ([6]; Table 6): 12 nM

O=S(=O)(Nc1cccc(-n2ccc3cnc(Nc4ccc(N5CCNCC5)cc4)nc32)c1)C1CC1 [drawing 320]
IC50 [1, 7]: 451 nM
IC50 ([6]; Table 6): 6 nM

CN1CCN(c2ccc(Nc3ncc4ccn(-c5cccc(NS(=O)(=O)C6CC6)c5)c4n3)cc2)CC1 [drawing 356]
IC50 [1, 7]: 1800 nM
IC50 ([6]; Table 6): 8 nM

CNCCOc1ccc(Nc2ncc3ccn(-c4cccc(NS(=O)(=O)C(C)(C)C)c4)c3n2)cc1F [drawing 467]
IC50 [1, 7]: 1300 nM
IC50 ([6]; Table 6): 79 nM

CNC1CCN(c2ccc(Nc3ncc4ccn(-c5cccc(NS(=O)(=O)C(C)(C)C)c5)c4n3)cc2)C1 (centres unmarked)
IC50 [1, 7]: 538 nM
IC50 ([6]; Table 6): 17 nM

CNc1nc(NC2CCNCC2)nc2c1ccn2-c1cccc(NS(=O)(=O)C(C)(C)C)c1
IC50 [1, 7]: 774 nM
IC50 ([6]; Table 6): 10000 nM

CCC1(S(=O)(=O)Nc2cc(-n3ccc4cnc(Nc5ccc(N6CCC(N(C)C)CC6)c(F)c5)nc43)ccc2F)CC1
IC50 [1, 7]: 963 nM
IC50 ([6]; Table 6): 24 nM

CN(C)C1CCN(c2ccc(Nc3ncc4ccn(-c5ccc(F)c(NS(=O)(=O)C6(C)CC6)c5)c4n3)cc2F)CC1
IC50 [1, 7]: 248 nM
IC50 ([6]; Table 6): 20 nM

CN1CCN(c2ccc(Nc3nc4c(c(Nc5cccc(NS(=O)(=O)C(C)(C)C)c5)n3)COC4)cc2)CC1 [drawing 206]
IC50 [2]: 1770 nM
IC50 [3]: 2470 nM
IC50 [4]: 1000 nM

CN1CCN(C(=O)Cc2ccc(Nc3ncc4ccn(-c5cccc(NS(=O)(=O)C6CC6)c5)c4n3)cc2)CC1
IC50 [1, 7]: 4010 nM
IC50 ([6]; Table 6): 182 nM

O=S(=O)(Nc1cccc(-n2ccc3cnc(Nc4ccc(N5CCNCC5)cc4)nc32)c1)C1CC1 [drawing 307]
IC50 [1, 7]: 1350 nM
IC50 ([6]; Table 6): 5 nM

CN1CCN(c2ccc(Nc3ncc4ccn(-c5cccc(NS(=O)(=O)C6CC6)c5)c4n3)cc2)CC1 [drawing 74]
IC50 ([1]; Table 5, read-out: BRD4 IC50): 355 nM
IC50 ([6]; Table 5): 2.5 nM

CN1CCN(c2ccc(Nc3ncc4ccn(-c5ccc6c(c5)CCN6S(=O)(=O)C(C)(C)C)c4n3)cc2)CC1 [drawing 398]
IC50 [1, 7]: 10000 nM
IC50 ([6]; Table 6): 0.6 nM

O=S(=O)(Nc1cc(-n2ccc3cnc(Nc4ccc(N5CCNCC5)cc4)nc32)ccc1F)C1CC1
IC50 [1, 7]: 1040 nM
IC50 ([6]; Table 6): 14.3 nM

CN(C)C1CCN(c2ccc(Nc3ncc4ccn(-c5cccc(NS(=O)(=O)C(C)(C)C)c5)c4n3)cc2)C1 (centres unmarked)
IC50 [1, 7]: 854 nM
IC50 ([6]; Table 6): 37 nM

Cc1cc(Nc2ncc3ccn(-c4cccc(NS(=O)(=O)C(C)(C)C)c4)c3n2)ccc1N1CCN(C)CC1
IC50 [1, 7]: 722 nM
IC50 ([6]; Table 6): 11 nM
